According to PubChem BioAssay (NCI):
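How tested: cells in 96-well plates exposed to compound for 48 hours at five concentrations. TGI: total growth inhibition.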

How the values were obtained:
Assay in all cases: DTP human tumour cell line panel, 48 h
786-0 renal = tested on: 786-0 renal
A498 renal = tested on: A498 renal
A549 NSCLC = tested on: A549 NSCLC
ACHN renal = tested on: ACHN renal
CAKI-1 renal = tested on: CAKI-1 renal
CCRF-CEM leukemia = tested on: CCRF-CEM leukemia
COLO 205 colon = tested on: COLO 205 colon
DLD-1 colon = tested on: DLD-1 colon
DMS 114 small cell lung = tested on: DMS 114 small cell lung
DMS 273 small cell lung = tested on: DMS 273 small cell lung
EKVX NSCLC = tested on: EKVX NSCLC
HCC-2998 colon = tested on: HCC-2998 colon
HCT-116 colon = tested on: HCT-116 colon
HCT-15 colon = tested on: HCT-15 colon
HOP-18 NSCLC = tested on: HOP-18 NSCLC
HOP-62 NSCLC = tested on: HOP-62 NSCLC
HOP-92 NSCLC = tested on: HOP-92 NSCLC
HT29 colon = tested on: HT29 colon
IGROV1 ovarian = tested on: IGROV1 ovarian
K-562 leukemia = tested on: K-562 leukemia
KM12 colon = tested on: KM12 colon
KM20L2 colon = tested on: KM20L2 colon
LOX IMVI melanoma = tested on: LOX IMVI melanoma
LXFL 529 NSCLC = tested on: LXFL 529 NSCLC
M14 melanoma = tested on: M14 melanoma
M19-MEL melanoma = tested on: M19-MEL melanoma
MALME-3M melanoma = tested on: MALME-3M melanoma
MOLT-4 leukemia = tested on: MOLT-4 leukemia
NCI-H226 lung = tested on: NCI-H226 lung
NCI-H23 lung = tested on: NCI-H23 lung
NCI-H460 lung = tested on: NCI-H460 lung
NCI-H522 lung = tested on: NCI-H522 lung
OVCAR-3 ovarian = tested on: OVCAR-3 ovarian
OVCAR-4 ovarian = tested on: OVCAR-4 ovarian
OVCAR-5 ovarian = tested on: OVCAR-5 ovarian
OVCAR-8 ovarian = tested on: OVCAR-8 ovarian
RPMI-8226 leukemia = tested on: RPMI-8226 leukemia
SF-268 CNS = tested on: SF-268 CNS
SF-539 CNS = tested on: SF-539 CNS
SK-MEL-2 melanoma = tested on: SK-MEL-2 melanoma
SK-MEL-28 melanoma = tested on: SK-MEL-28 melanoma
SK-MEL-5 melanoma = tested on: SK-MEL-5 melanoma
SK-OV-3 ovarian = tested on: SK-OV-3 ovarian
SN12C renal = tested on: SN12C renal
SNB-19 CNS = tested on: SNB-19 CNS
SNB-75 CNS = tested on: SNB-75 CNS
SW-620 colon = tested on: SW-620 colon
TK-10 renal = tested on: TK-10 renal
U251 CNS = tested on: U251 CNS
UACC-257 melanoma = tested on: UACC-257 melanoma
UACC-62 melanoma = tested on: UACC-62 melanoma
UO-31 renal = tested on: UO-31 renal
XF 498 CNS = tested on: XF 498 CNS
HL-60(TB) leukemia = tested on: HL-60(TB) leukemia
RXF 393 renal = tested on: RXF 393 renal
SF-295 CNS = tested on: SF-295 CNS
SNB-78 CNS = tested on: SNB-78 CNS

Measured: TGI

COc1ccccc1NC(=O)c1nc2ccc([N+](=O)[O-])cc2nc1C
73.8 µM: XF 498 CNS
39.9 µM: HOP-18 NSCLC
not listed: HL-60(TB) leukemia | RXF 393 renal | SF-295 CNS | SNB-78 CNS
> 100 µM: all other assays above

O=C1CCSC2=C1SCc1sccc12
not listed: A498 renal | ACHN renal | DMS 273 small cell lung | HCT-116 colon | HOP-18 NSCLC | HT29 colon | NCI-H226 lung | SF-539 CNS | U251 CNS
> 100 µM: all other assays above
